Patent US20030027867A1, “Use of R-NSAID compounds for anti-HIV treatment” (Myriad Genetics, Incorporated, priority 2001, published 2003)

Experiments:
in vitro = type: cell-based; settings: human
Protocol: At assay termination the assay plates were stained with the soluble tetrazolium-based dye MTS (CellTiter Reagent, Promega) to determine cell viability and quantify compound toxicity. MTS is metabolized by the mitochondria enzymes of metabolically active cells to yield a soluble formazan product, allowing the rapid quantitative analysis cell viability and compound cytotoxicity. […] At termination of the assay, 20 μl of MTS reagent was added per well. The wells were incubated overnight for the HIV cytoprotection assay at 37° C. The incubation intervals were chosen based on empirically determined times for optimal dye reduction in each cell type. Adhesive plate sealers were used in place of the lids, the sealed plate was inverted several times to mix the soluble formazan product and the plate was read spectrophotometrically at 490 nm with a Molecular Devices Vmax plate reader.

HIV-1 [1] = settings: TC50/IC50 in human PBMCs
Protocol: (§1) R-flurbiprofen was supplied in powder form from Catalytica Pharmaceutical Inc., Greenville, N.C. and was solubilized in DMSO to yield a 200 mM stock solution. For these studies, the compound was tested at a high-test concentration of 1000 μM along with eight serial half-logarithmic dilutions (1000 μM down to 0.01 μM). AZT was used as a positive control antiviral compound.
(§2) Fresh human blood was obtained commercially from Interstate Blood Bank, Inc. (Memphis, Tenn.). […] The laboratory-adapted HIV-1IIIB strain was propagated and tittered in fresh human PBMCs; pre-titered aliquots of HIV-1ROJO and Hiv-1IIIB were removed from the freezer (−80° C.) and thawed rapidly to room temperature in a biological safety cabinet immediately before use. Phytohemagglutinin (PHA-P) was obtained from Sigma (St. Louis, Mo.) and recombinant IL-2 was obtained from Amgen (San Francisco, Calif.).
(§3) Fresh human PBMCs were isolated from screened donors, seronegative for HIV and HBV. Leukophoresed blood was diluted 1:1 with Dulbecco's phosphate buffered saline (PBS), layered over 14 mL of Ficoll-Hypaque density gradient in a 50 mL centrifuge tube and then centrifuged for 30 minutes at 600×g. Banded PBMCs were aspirated from the resulting interface and subsequently washed 2× with PBS by low speed centrifugation. After the final wash, cells were enumerated by trypan blue exclusion and re-suspended at 1×10^7 cells/mL in RPMI 1640 supplemented with 15% Fetal Bovine Serum (FBS), 2 mM L-glutamine, 4 μg/mL PHA-P. The cells were allowed to incubate for 48-72 hours at 37° C. After incubation, PBMCs were centrifuged and reset in RPMI 1640 with 15% FBS, 2 mM L-glutamine, 100 U/ml penicillin, 100 μg/mL streptomycin, 10 μg/mL gentamycin, and 20 U/mL recombinant human IL-2. PBMCs were maintained in this medium at a concentration of 1-2×10^6 cells/mL with biweekly medium changes until used in the assay protocol.
(§4) For the standard PBMC assay, PHA-P stimulated cells from at least two normal donors were pooled, diluted in fresh medium to a final concentration of 1×10^6 cells/mL, and plated in the interior wells of 96 well round bottom microplate at 50 μL/well (5×10^4 cells/well). Test drug dilutions were prepared at a 2× concentration in microtiter tubes and 100 μL of each concentration was placed in appropriate wells in a standard format. 50 μL of a predetermined dilution of virus stock was placed in each test well (final MOI ≈0.1). Wells with cells and virus alone were used for virus control. Separate plates were prepared identically without virus for drug cytotoxicity studies using an XTT assay system. The PBMC cultures were maintained for seven days following infection, at which time cell-free supernate samples were collected and assayed for reverse transcriptase activity as described below. […]

HIV-1 [2] = test: microbe, parasite or virus in culture; settings: Human immunodeficiency virus 1, PBMC, 168 h
Protocol: as §1, §2, §3, §4

Structure (SMILES)	CC50 at 7 days (in vitro)	Therapeutic Index (HIV-1 [1])	IC50 (HIV-1 [2])
Cc1cn([C@H]2C[C@H](N=[N+]=[N-])[C@@H](CO)O2)c(=O)[nH]c1=O [AZT, 3′-Azido-3′-deoxythymidine]	> 4 µM	>400.00	0.01 µM
CC(C(=O)O)c1ccc(-c2ccccc2)c(F)c1 (stereo not drawn) [R-flurbiprofen, 3-fluoro-4-phenylhydratropic acid]	731 µM	3.1	238 µM
